What was measured:
[1] = system: lean, female, Wistar rats; assay: Binge-eating on chocolate in rats (BED model); assay type: in vivo
From the text: Carbohydrate and fat ‘comfort foods’, with bingeing on chocolate are known to be associated with eating disorders in humans and in rodents.
BED is, for example, to be studied using lean, female, Wistar rats (weight range 200-250 g at the start of the study) from Charles River, UK. Rats are to be contained in a controlled environment and housed in an appropriate way to perform the study, for example singly-housed in polypropylene cages with wire grid floors to enable food intake of each rat to be recorded. […]
Body weight, food and water intake are to be measured each day throughout the study, for example as described in the following: Animals are to be weighed at weekly intervals after arrival. […] The weights of the jars are to be recorded before and after the 2 h test session. […] The body weight of each rat and its food and water intake are to be measured on every morning of the study; readings are to be taken in the final stage of the light phase at ˜09:45 h. […]
During the training period, an extra food jar (along with the jar containing normal chow) containing chocolate are to be added to the cage for 2 hr/day intermittently, for at least three weeks, using the access schedule above. […] The chocolate and chow consumed during this 2 h period are to be measured. […]

[2] = system: rats with 6-hydroxydopamine (6OHDA)-induced lesions of the dorsolateral striatum (DLS); assay: ICSS-mediated probability discounting (risk-taking) in rat model of PD; assay type: in vivo; conditions: co-administration with pramipexole
From the text: Impulsiveness includes a greater tendency for risk-taking. This tendency can be quantified using probability discounting procedures; a cross-species assessment in which the subject chooses between a small reinforcer (SR) delivered at a high probability, and a large reinforcer (LR) delivered at a low probability. Typically, the subjective value of the LR is discounted when its probability is low, and individuals then select the smaller, yet more certain reinforcer. Those who suffer from ICD are less sensitive to low probabilities than healthy individuals, and they more frequently select the LR even when the odds to obtain the reward are very low (Hendrickson, et al., Effects of mindful eating training on delay and probability discounting for food and money in obese and healthy-weight individuals. Behav. Res. Ther. 51, 399-409, 2013). […]
Rats then will be trained for ICSS followed by probability discounting. […] Pramipexole will be infused for 14 days (optionally a similar time period may be used), during which probability discounting will be assessed each day. Forelimb akinesia will be evaluated before lesion, after lesion, and at various time points during pramipexole administration. […]

6-OHDA lesioned rats = assay: Forelimb step task (forelimb akinesia) in 6-OHDA lesioned rats; assay type: in vivo; conditions: co-administration with pramipexole
Procedure: Male Sprague-Dawley (outbred) rats (250-300 g; Harlan Laboratories, Indianapolis, Ind.) are to be pair-housed under environmentally controlled conditions under a 12 h light/dark cycle (lights on at 07:00); food and water are to be available ad libitum.
6-OHDA lesions will be carried out at described previously (Napier et al., Pramipexole-induced increased probabilistic discounting: comparison between a rodent model of Parkinson's disease and controls. Neuropsychopharmacology 37, 1397-1408, 2012). Prior to inducing lesions, desipramine (obtained from Sigma-Aldrich), a norepinephrine reuptake inhibitor, will be administered (25 mg/kg subcutaneously (sc)) to enhance selectivity of 6OHDA for dopamine neurons. Rats were anesthetized with isoflurane and secured in a stereotaxic frame. […]
Rats then will be trained for ICSS followed by probability discounting. […] Pramipexole will be infused for 14 days (optionally a similar time period may be used), during which probability discounting will be assessed each day. Forelimb akinesia will be evaluated before lesion, after lesion, and at various time points during pramipexole administration. […] Probability discounting will be assessed each day of chronic drug treatment; forelimb akinesia will be evaluated before lesion, after lesion, and at various time points during chronic drug administration.

PD patients = conditions: cited from earlier work

With `CC(C)COc1ccc(CNC(=O)N(Cc2ccc(F)cc2)C2CCN(C)CC2)cc1` [pimavanserin, N-(1-methylpiperidin-4-yl)-N-(4-fluorophenylmethyl)-N′-(4-(2-methylpropyloxy)phenylmethyl)carbamide] the “consumption of standard laboratory diet during the 2 h binge-eating session” value ([1]; compared to vehicle treated control) was “no effect”, the “consumption of palatable food (chocolate) in 2 h binge-eating session” value ([1]; pimavanserin 0.1, 0.5, 1.0, 3.0, 6.0, 10.0 mg/kg po 60 min prior to session) was “decrease the consumption” and the “risk taking behavior in rats receiving pramipexole (proportion of rats selecting LR)” value [2] was “reduced risk taking behavior”. For the same compound, the “motor function in rats receiving pramipexole” value (6-OHDA lesioned rats) was “did not alter motor function”, the “hallucinations and delusions associated with PD” value (PD patients) was “control hallucinations and delusions” and the “motor function in PD patients” value (PD patients) was “without impacting motor function”.
